Data on 24 molecules can be found in patent publication US9365540B2, “Benzimidazole derivatives as MCH receptor antagonists” (Takeda Pharmaceutical Company Limited, priority 2012, dated 2016).

The target in the experiment is T1, human MCH receptor 1 (MCHR1) (Homo sapiens, UniProt Q99705).
T1 construct: expressed in transfected cells; host or cells: CHO cell clone 57 (membrane fraction)
Kind of experiment: human MCH receptor 1 (MCHR1) competitive binding assay with [125I]-MCH(4-19). As to conditions: test compound 0.1 μM, human MCHR1-expressing CHO cell membrane fraction; for inhibition at 0.1 µM: read-out: Binding inhibition rate % (0.1 μM). As to the method: Determination of human MCH receptor 1 (MCHR1) competitive inhibitory activity of test compound using binding assay
1. Preparation of Membrane Fraction
Using human MCHR1 (=SLC-1 receptor)-expressing CHO cell clone 57 described in WO01/82925, MCHR1-expressing CHO cell membrane fractions were prepared by the following method.
In phosphate buffered saline (pH 7.4) supplemented with 5 mM EDTA (ethylenediaminetetraacetic acid) were respectively suspended human MCHR1-expressing CHO cells (1×10^8 cells) and centrifuged. Homogenate buffer (10 mL, 10 mM NaHCO3, 5 mM EDTA, pH 7.5, 0.5 mM PMSF (phenylmethylsulfonyl fluoride), 20 mg/L leupeptin, 4 mg/L E-64, 1 mg/L pepstatin A) was added to the pellets of the cells and, using Polytron Homogenizer, the mixture was homogenated. The supernatant obtained after centrifugation at 400×g for 10 min was further centrifuged at 100,000×g for 1 hr to give precipitate of the membrane fraction. The precipitate were suspended in 2 mL of assay buffer [20 mM Tris-HCl (pH 7.5), 5 mM EDTA, 0.5 mM PMSF, 20 mg/L leupeptin, 4 mg/L E-64, 1 mg/L pepstatin A]. The membrane fractions were suspended in assay buffer to a protein concentration of 2 mg/mL, and after dispensing, preserved at −80° C. and used upon thawing each time when in use.
The MCHR1 ligand binding inhibitory activity of the test compound was determined as follows.
An MCHR1-expressing CHO cell membrane fraction (173 μL) diluted with an assay buffer was dispensed to a 96 well polypropylene plate (3363, Corning). DMSO solution (2 μL), 33 μM cold MCH(1-19) diluted with DMSO solution (2 μL), or a test compound solution diluted with DMSO solution to various concentrations (2 μL) was added, and lastly, [^125I]-MCH (4-19) diluted with assay buffer (hereinafter, sometimes to be referred to as “hot MCH”, 25 μL) was added to each well. The mixture was reacted with stirring at room temperature for 1 hr, and the plate was set on FilterMate Harvester (PerkinElmer). Using a treating glass filter plate (GF/C, PerkinElmer) with polyethyleneimine, which had been previously set, the plate was suction-filtered and washed three times with washing buffer (50 mM Tris-HCl buffer pH 7.5). The glass filter plate was dried, MicroScinti0 (PerkinElmer) was added at 25 μL/well, and the resulting radioactivity was measured by TopCount liquid scintillation counter (PerkinElmer). The binding inhibition rate of the test compound was calculated by the following formula. Binding inhibition (%)=100−(radioactivity upon addition of test compound and hot MCH−radioactivity upon addition of cold MCH and hot MCH solution)/(radioactivity upon addition of DMSO solution and hot MCH−radioactivity upon addition of cold MCH and hot MCH solution)×100
The binding inhibition rates (%) of test compounds (0.1 μM) as measured using human MCHR1-expressing CHO cell are shown in Table 2.

T1 sequence (Q99705 whole entry): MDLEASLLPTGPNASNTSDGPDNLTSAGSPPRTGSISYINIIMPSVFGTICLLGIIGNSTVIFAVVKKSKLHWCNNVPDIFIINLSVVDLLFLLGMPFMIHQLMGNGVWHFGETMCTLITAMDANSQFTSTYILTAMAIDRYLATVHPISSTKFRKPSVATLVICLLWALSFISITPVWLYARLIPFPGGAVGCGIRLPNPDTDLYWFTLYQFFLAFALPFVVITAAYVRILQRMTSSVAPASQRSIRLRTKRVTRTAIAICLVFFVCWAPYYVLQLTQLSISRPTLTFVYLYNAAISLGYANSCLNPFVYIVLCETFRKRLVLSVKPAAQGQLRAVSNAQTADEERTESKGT

As usually defined, the inhibition is the relative decrease from the control value, in per cent. `Cn1c([C@H]2C[C@H]2F)nc2ccc(-n3ccc(OCc4ccc(Cl)cc4)cc3=O)cc21` (racemic) [Example 136, 4-((4-Chlorobenzyl)oxy)-1-(2-((1RS,2RS)-2-fluorocyclopropyl)-1-methyl-1H-benzimidazol-6-yl)pyridin-2(1H)-one]: the inhibition at 0.1 µM turned out to be 69%.

For `Cn1c([C@H]2C[C@@H]2F)nc2ccc(-n3ccc(OCc4ccc(Cl)cc4)cc3=O)cc21` (racemic) [Example 137, 4-((4-Chlorobenzyl)oxy)-1-(2-((1RS,2SR)-2-fluorocyclopropyl)-1-methyl-1H-benzimidazol-6-yl)pyridin-2(1H)-one], the “Binding inhibition rate % (0.1 μM)” value is 68%.

Take `Cn1c([C@@H]2C[C@@H]2CO)nc2ccc(-n3ccc(OCc4ccc(Cl)cc4)cc3=O)cc21` (racemic) [Example 149, 4-((4-Chlorobenzyl)oxy)-1-(2-((1RS,2SR)-2-(hydroxymethyl)cyclopropyl)-1-methyl-1H-benzimidazol-6-yl)pyridin-2(1H)-one]: the inhibition at 0.1 µM stood at 55%.

On to `Cn1c([C@@H]2C[C@@H]2C(C)(C)O)nc2ccc(-n3ccc(OCc4ccccc4)cc3=O)cc21` (racemic) [Example 152, 4-(Benzyloxy)-1-(2-((1RS,2SR)-2-(2-hydroxypropan-2-yl)cyclopropyl)-1-methyl-1H-benzimidazol-6-yl)pyridin-2(1H)-one], for which the inhibition at 0.1 µM is 75%.

Turning to `Cn1c([C@@H]2C[C@@H]2C(C)(C)F)nc2ccc(-n3ccc(OCc4ccccc4)cc3=O)cc21` (racemic) [Example 155, 4-(Benzyloxy)-1-(2-((1RS,2SR)-2-(2-fluoropropan-2-yl)cyclopropyl)-1-methyl-1H-benzimidazol-6-yl)pyridin-2(1H)-one], the inhibition at 0.1 µM worked out at 54%.

`Cn1c([C@@H]2C[C@@H]2C(C)(C)O)nc2ccc(-n3ccc(OCc4ccc(Cl)s4)cc3=O)cc21` (racemic) [Example 203, 4-((5-Chloro-2-thienyl)methoxy)-1-(2-((1RS,2SR)-2-(2-hydroxypropan-2-yl)cyclopropyl)-1-methyl-1H-benzimidazol-6-yl)pyridin-2(1H)-one]: the inhibition at 0.1 µM came to 91%.

Consider `Cn1c([C@@H]2C[C@@H]2C(C)(C)O)nc2ccc(-n3ccc(OCc4ccc(Cl)cn4)cc3=O)cc21` (racemic) [Example 204, 4-((5-Chloropyridin-2-yl)methoxy)-1-(2-((1RS,2SR)-2-(2-hydroxypropan-2-yl)cyclopropyl)-1-methyl-1H-benzimidazol-6-yl)pyridin-2(1H)-one], for which the inhibition at 0.1 µM came to 67%.

For `Cn1c([C@@H]2C[C@@H]2C(C)(C)O)nc2ccc(-n3ccc(OCc4ccc(F)cc4)cc3=O)cc21` (racemic) [Example 205, 4-((4-Fluorobenzyl)oxy)-1-(2-((1RS,2SR)-2-(2-hydroxypropan-2-yl)cyclopropyl)-1-methyl-1H-benzimidazol-6-yl)pyridin-2(1H)-one], the inhibition at 0.1 µM is 76%.

`CCC(O)(CC)[C@H]1C[C@H]1c1nc2ccc(-n3ccc(OCc4ccc(Cl)cc4)cc3=O)cc2n1C` (racemic) [Example 206, 4-((4-Chlorobenzyl)oxy)-1-(2-((1RS,2SR)-2-(3-hydroxypentan-3-yl)cyclopropyl)-1-methyl-1H-benzimidazol-6-yl)pyridin-2(1H)-one]: the inhibition at 0.1 µM was 95%.

As for `Cn1c([C@@H]2C[C@@H]2C(C)(C)O)nc2ccc(-n3ccc(OCc4ccc(F)c(F)c4)cc3=O)cc21` (racemic) [Example 212, 4-((3,4-Difluorobenzyl)oxy)-1-(2-((1RS,2SR)-2-(2-hydroxypropan-2-yl)cyclopropyl)-1-methyl-1H-benzimidazol-6-yl)pyridin-2(1H)-one], the inhibition at 0.1 µM was 80%.

As for `Cn1c([C@@H]2C[C@@H]2C(C)(C)O)nc2ccc(-n3ccc(OCc4csc(Cl)c4)cc3=O)cc21` (racemic) [Example 215, 4-((5-Chloro-3-thienyl)methoxy)-1-(2-((1RS,2SR)-2-(2-hydroxypropan-2-yl)cyclopropyl)-1-methyl-1H-benzimidazol-6-yl)pyridin-2(1H)-one], the inhibition at 0.1 µM was determined as 92%.

Regarding `Cn1c([C@@H]2C[C@@H]2C(C)(C)O)nc2ccc(-n3ccc(OCc4ccc(Cl)c(F)c4)cc3=O)cc21` (racemic) [Example 220, 4-((4-Chloro-3-fluorobenzyl)oxy)-1-(2-((1RS,2SR)-2-(2-hydroxypropan-2-yl)cyclopropyl)-1-methyl-1H-benzimidazol-6-yl)pyridin-2(1H)-one], the inhibition at 0.1 µM stood at 81%.

As for `Cn1c([C@@H]2C[C@@H]2C(C)(C)O)nc2ccc(-n3ccc(OCc4ccc(F)c(Cl)c4)cc3=O)cc21` (racemic) [Example 222, 4-((3-Chloro-4-fluorobenzyl)oxy)-1-(2-((1RS,2SR)-2-(2-hydroxypropan-2-yl)cyclopropyl)-1-methyl-1H-benzimidazol-6-yl)pyridin-2(1H)-one], the inhibition at 0.1 µM is 80%.

With `Cn1c([C@@H]2CC[C@@H]2C(C)(C)O)nc2ccc(-n3ccc(OCc4ccc(Cl)cc4)cc3=O)cc21` (racemic) [Example 223, 4-((4-Chlorobenzyl)oxy)-1-(2-((1RS,2SR)-2-(2-hydroxypropan-2-yl)cyclobutyl)-1-methyl-1H-benzimidazol-6-yl)pyridin-2(1H)-one], the inhibition at 0.1 µM is 60%.

With `Cc1c(C2CC2)nc2ccc(-n3ccc(OCc4ccc(C(F)(F)F)cc4)cc3=O)cn12` [Example 5, 1-(2-Cyclopropyl-3-methylimidazo[1,2-a]pyridin-6-yl)-4-((4-(trifluoromethyl)benzyl)oxy)pyridin-2(1H)-one], the inhibition at 0.1 µM was 58%.

Consider `CCn1c(C2CC2)nc2ccc(-n3ccc(OCc4ccc(F)cc4)cc3=O)cc21` [Example 20, 1-(2-Cyclopropyl-1-ethyl-1H-benzimidazol-6-yl)-4-((4-fluorobenzyl)oxy)pyridin-2(1H)-one], for which the inhibition at 0.1 µM amounted to 59%.

Take `CCn1c(C2CC2)nc2ccc(-n3ccc(OCc4ccc(Cl)cc4)cc3=O)cc21` [Example 21, 4-((4-Chlorobenzyl)oxy)-1-(2-cyclopropyl-1-ethyl-1H-benzimidazol-6-yl)pyridin-2(1H)-one]: the inhibition at 0.1 µM turned out to be 76%.

Consider `Cc1c(C2CC2)nc2ccc(-n3ccc(OCc4ccc(F)cc4F)cc3=O)cn12` [Example 22, 1-(2-Cyclopropyl-3-methylimidazo[1,2-a]pyridin-6-yl)-4-((2,4-difluorobenzyl)oxy)pyridin-2(1H)-one], for which the inhibition at 0.1 µM is 81%.

Consider `Cc1nc2ccc(-n3ccc(OCc4ccc(Cl)cc4)cc3=O)cn2c1C` [Example 25, 4-((4-Chlorobenzyl)oxy)-1-(2,3-dimethylimidazo[1,2-a]pyridin-6-yl)pyridin-2(1H)-one], for which the inhibition at 0.1 µM came to 58%.

In the case of `CCCn1c(C2CC2)nc2ccc(-n3ccc(OCc4ccc(Cl)cc4)cc3=O)cc21` [Example 27, 4-((4-Chlorobenzyl)oxy)-1-(2-cyclopropyl-1-propyl-1H-benzimidazol-6-yl)pyridin-2(1H)-one], the inhibition at 0.1 µM amounted to 55%.

For the molecule `Cc1c(C2CC2)nc2ccc(-n3ccc(OCc4ccc(Cl)cn4)cc3=O)cn12` [Example 32, 4-((5-Chloropyridin-2-yl)methoxy)-1-(2-cyclopropyl-3-methylimidazo[1,2-a]pyridin-6-yl)pyridin-2(1H)-one], the inhibition at 0.1 µM came to 83%.

Turning to `CCc1nc2ccc(-n3ccc(OCc4ccccc4)cc3=O)cc2n1C` [Example 47, 4-(Benzyloxy)-1-(2-ethyl-1-methyl-1H-benzimidazol-6-yl)pyridin-2(1H)-one], the “Binding inhibition rate % (0.1 μM)” value came to 62%.

For `Cc1csc(COc2ccn(-c3ccc4nc(C5CC5)n(C)c4c3)c(=O)c2)c1` [Example 56, 1-(2-Cyclopropyl-1-methyl-1H-benzimidazol-6-yl)-4-((4-methyl-2-thienyl)methoxy)pyridin-2(1H)-one], the inhibition at 0.1 µM is 61%.

In the case of `COc1ccc(COc2ccn(-c3ccc4nc(C5CC5)n(C)c4c3)c(=O)c2)cc1` [Example 77, 1-(2-Cyclopropyl-1-methyl-1H-benzimidazol-6-yl)-4-((4-methoxybenzyl)oxy)pyridin-2(1H)-one], the inhibition at 0.1 µM was found to be 71%.
